Measurements reported in patent US6846805B2, “Helical peptidomimetics” (The Brigham and Women's Hospital, Inc., priority 2002, dated 2005).
Read-outs that look alike come from different tables or passages of the source. Square brackets hold non-standard residues; d marks the D form. Peptide text beside a SMILES is read from it. * marks the point of attachment. dBpa = N[C@H](Cc1ccc(C(=O)c2ccccc2)cc1)C(=O)O; Boc = CC(C)(C)OC(=O)*; Aib = CC(C)(N)C(=O)O; Bn = c1ccc(C*)cc1

Test system: γ-secretase (production of total Aβ)
Assay: Inhibition of total Aβ production in APP-transfected cells (sandwich ELISA)
Assay type: cell-based
Settings: CHO cells stably transfected with human APP
Source text: Based on the helical model for the APP transmembrane domain, we have identified short peptides designed to adopt a similar conformation that block γ-secretase activity. Judicious replacement of selected residues of short APP-derived peptides with 2-aminoisobutyric acid (Aib), a known helix-inducing amino acid (19, 20), provided peptides that, in principle, mimic the γ-secretase cleavage site on one face of the helix, with Aib residues on the other face. We have identified Aib-containing peptides (see below) that inhibit Aβ production in APP-transfected cells with IC50's as low as 2 μM. […] We also discovered that an Aib decapeptide that is not based on the APP sequence (VIIb in ref 19: […] The crystal structure of this compound has been determined, and the peptide is fully helical (19). […] These peptides likewise assume a helical conformation, although of the opposite sense (left-handed instead of right-handed). Thus, the invention advantageously provides helical peptidomimetics having improved metabolic stability. […] IC50 is the concentration of compound that reduced production of total Aβ by 50% in a cell-based assay using CHO cells stably transfected with human APP. […] The 15 D-peptides, varied in first position, are tested for their ability to inhibit total Aβ production in APP-transfected cell lines using a sensitive, quantitative, and convenient sandwich ELISA as we have previously described (12, 13). The compound best able to reduce Aβ production is then used as a starting point for the synthesis of a second round of peptide synthesis, 15 compounds each defined at the second position and containing the optimal first residue. In this iterative fashion, the optimal residue for each position is determined.

[1] = cell-based assay, read-out: IC50 (concentration of compound that reduced production of total Aβ by 50%)

Row | IC50 [1] | Structure (SMILES) | IC50 (same cell-based assay, read-out: IC50 (reduction of total Aβ production))
1 | 25 µM | CC[C@H](C)[C@H](NC(=O)C(C)(C)NC(=O)[C@@H](NC(=O)[C@H](C)NC(=O)OC(C)(C)C)[C@@H](C)OCc1ccccc1)C(=O)N[C@H](C(=O)NC(C)(C)C(=O)OC)C(C)C [Compound 1, Boc-Ala-Thr(OBz)-Aib-Ile-Val-Aib-OMe] (Boc-AT(Bn)[Aib]IV[Aib]-OMe) | –
2 | 15 µM | CC[C@H](C)[C@H](NC(=O)OC(C)(C)C)C(=O)N[C@@H](C)C(=O)N[C@H](C(=O)NC(C)(C)C(=O)N[C@H](C(=O)N[C@H](C(=O)NC(C)(C)C(=O)OC)C(C)C)[C@@H](C)CC)[C@@H](C)OCc1ccccc1 [Compound 2, Boc-Ile-Ala-Thr(OBz)-Aib-Ile-Val-Aib-OMe] (Boc-IAT(Bn)[Aib]IV[Aib]-OMe) | –
3 | 10 µM | CC[C@H](C)[C@H](NC(=O)C(C)(C)NC(=O)OC(C)(C)C)C(=O)N[C@@H](C)C(=O)N[C@H](C(=O)NC(C)(C)C(=O)N[C@H](C(=O)N[C@H](C(=O)NC(C)(C)C(=O)OC)C(C)C)[C@@H](C)CC)[C@@H](C)OCc1ccccc1 [Compound 3, Boc-Aib-Ile-Ala-Thr(OBz)-Aib-Ile-Val-Aib-OMe] (Boc-[Aib]IAT(Bn)[Aib]IV[Aib]-OMe) | –
4 | 2 µM | CC[C@H](C)[C@H](NC(=O)C(C)(C)NC(=O)[C@@H](NC(=O)OC(C)(C)C)C(C)C)C(=O)N[C@@H](C)C(=O)N[C@H](C(=O)NC(C)(C)C(=O)N[C@H](C(=O)N[C@H](C(=O)NC(C)(C)C(=O)OC)C(C)C)[C@@H](C)CC)[C@@H](C)OCc1ccccc1 [Compound 4, Boc-Val-Aib-Ile-Ala-Thr(OBz)-Aib-Ile-Val-Aib-OMe] (Boc-V[Aib]IAT(Bn)[Aib]IV[Aib]-OMe) | –
5 | 5 µM | CC[C@H](C)[C@H](NC(=O)C(C)(C)NC(=O)[C@@H](NC(=O)CNC(=O)OC(C)(C)C)C(C)C)C(=O)N[C@@H](C)C(=O)N[C@H](C(=O)NC(C)(C)C(=O)N[C@H](C(=O)N[C@H](C(=O)NC(C)(C)C(=O)OC)C(C)C)[C@@H](C)CC)[C@@H](C)OCc1ccccc1 [Compound 5, Boc-Gly-Val-Aib-Ile-Ala-Thr(OBz)-Aib-Ile-Val-Aib-OMe] (Boc-GV[Aib]IAT(Bn)[Aib]IV[Aib]-OMe) | –
6 | 12 µM | CC[C@H](C)[C@H](NC(=O)[C@@H](NC(=O)OC(C)(C)C)C(C)C)C(=O)NC(C)(C)C(=O)N[C@H](C(=O)N[C@H](C(=O)NC(C)(C)C(=O)OC)C(C)C)[C@@H](C)OCc1ccccc1 [Compound 6, Boc-Val-Ile-Aib-Thr(OBz)-Val-Aib-OMe] (Boc-VI[Aib]T(Bn)V[Aib]-OMe) | –
7 | 6 µM | CC[C@H](C)[C@H](NC(=O)[C@@H](NC(=O)[C@@H](NC(=O)OC(C)(C)C)C(C)C)C(C)C)C(=O)NC(C)(C)C(=O)N[C@H](C(=O)N[C@H](C(=O)NC(C)(C)C(=O)OC)C(C)C)[C@@H](C)OCc1ccccc1 [Compound 7, Boc-Val-Val-Ile-Aib-Thr(OBz)-Val-Aib-OMe] (Boc-VVI[Aib]T(Bn)V[Aib]-OMe) | –
8 | 6 µM | CC[C@H](C)[C@H](NC(=O)[C@@H](NC(=O)[C@@H](NC(=O)C(C)(C)NC(=O)OC(C)(C)C)C(C)C)C(C)C)C(=O)NC(C)(C)C(=O)N[C@H](C(=O)N[C@H](C(=O)NC(C)(C)C(=O)OC)C(C)C)[C@@H](C)OCc1ccccc1 [Compound 8, Boc-Aib-Val-Val-Ile-Aib-Thr(OBz)-Val-Aib-OMe] (Boc-[Aib]VVI[Aib]T(Bn)V[Aib]-OMe) | –
9 | 3 µM | CC[C@H](C)[C@H](NC(=O)[C@@H](NC(=O)[C@@H](NC(=O)C(C)(C)NC(=O)CNC(=O)OC(C)(C)C)C(C)C)C(C)C)C(=O)NC(C)(C)C(=O)N[C@H](C(=O)N[C@H](C(=O)NC(C)(C)C(=O)OC)C(C)C)[C@@H](C)OCc1ccccc1 [Compound 9, Boc-Gly-Aib-Val-Val-Ile-Aib-Thr(OBz)-Val-Aib-OMe] (Boc-G[Aib]VVI[Aib]T(Bn)V[Aib]-OMe) | –
10 | 3 µM | CC[C@H](C)[C@H](NC(=O)[C@@H](NC(=O)[C@@H](NC(=O)C(C)(C)NC(=O)CNC(=O)[C@@H](NC(=O)OC(C)(C)C)C(C)C)C(C)C)C(C)C)C(=O)NC(C)(C)C(=O)N[C@H](C(=O)N[C@H](C(=O)NC(C)(C)C(=O)OC)C(C)C)[C@@H](C)OCc1ccccc1 [Compound 10, Boc-Val-Gly-Aib-Val-Val-Ile-Aib-Thr(OBz)-Val-Aib-OMe] (Boc-VG[Aib]VVI[Aib]T(Bn)V[Aib]-OMe) | –
11 | – | COC(=O)C(C)(C)NC(=O)[C@H](NC(=O)[C@H](NC(=O)C(C)(C)NC(=O)[C@@H](Cc1ccc(C(=O)c2ccccc2)cc1)NC(=O)[C@H](NC(=O)[C@H](NC(=O)C(C)(C)NC(=O)CNC(=O)[C@H](NC(=O)OC(C)(C)C)C(C)C)C(C)C)C(C)C)[C@H](C)OCc1ccccc1)C(C)C [SEQ ID NO:11, Boc-D-Val-Gly-Aib-D-Val-D-Val-D-BPA-Aib-D-Thr(OBz)-D-Val-Aib-OMe] (Boc-[dV]G[Aib][dV][dV][dBpa][Aib][dT](Bn)[dV][Aib]-OMe) | 0.1 µM
12 | 2 µM | COC(=O)C(C)(C)NC(=O)[C@H](CC(C)C)NC(=O)[C@H](C)NC(=O)C(C)(C)NC(=O)[C@H](CC(C)C)NC(=O)[C@H](C)NC(=O)C(C)(C)NC(=O)[C@H](CC(C)C)NC(=O)[C@H](C)NC(=O)C(C)(C)NC(=O)OC(C)(C)C [VIIb, Boc-Aib-Ala-Leu-Aib-Ala-Leu-Aib-Ala-Leu-Aib-O-methylester, reference compound] (Boc-[Aib]AL[Aib]AL[Aib]AL[Aib]-OMe) | –
